Read-outs that look alike come from different tables or passages of the source.
Columns and labels:
[1] = test system: bronchospasm induced by serotonin; assay: bronchospasmolytic activity (Konzett and Roessler), bronchospasm induced by serotonin; format: in vivo, Dunkin-Hartley guinea-pig; conditions: Cavia porcellus; intravenous; serotonin-induced bronchospasm; read-out: Doses (ID50), Serotonin
How it was run: (§1)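 Anesthetized (urethane), curarized, ventilated Dunkin-Hartley guinea-pigs with endotracheal pressure recorded after histamine, serotonin or acetylcholine challenge. Compound given i.v. 2 min before spasmogen, then in 3–4 increasing cumulative doses at 15-min intervals; six animals per compound and spasmogen.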

[2] = test system: bronchospasm induced by histamine; assay: bronchospasmolytic activity (Konzett and Roessler), bronchospasm induced by histamine; format: in vivo, Dunkin-Hartley guinea-pig; conditions: Cavia porcellus; intravenous; histamine-induced bronchospasm; read-out: Doses (ID50), Histamine
How it was run: as §1

[3] = test system: bronchospasm induced by acetylcholine; assay: bronchospasmolytic activity (Konzett and Roessler), bronchospasm induced by acetylcholine; format: in vivo, Dunkin-Hartley guinea-pig; conditions: Cavia porcellus; intravenous; acetylcholine-induced bronchospasm; read-out: Doses (ID50), Acetylcholine
How it was run: as §1

[4] = test system: plantar edema induced by immune complexes; assay: "reverse passive Arthus" (RPA) test, anti-inflammatory and anti-edema activity; format: in vivo, Sprague-Dawley rat; conditions: Rattus norvegicus, intravenous
How it was run: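 Rats received subplantar anti-ovalbumin serum in the right hind paw plus i.v. ovalbumin 1 ml/kg (25 mg/ml). Compound was given i.v. 30 s before induction, at ≥3 doses, 6 rats/dose. Paw volume was measured by plethysmometry at 3 and 5 h, and ID30 (μmole/kg) is the dose reducing edema 30% versus controls.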

[5] = test system: anaphylactic release of histamine, guinea-pig lung sections; assay: potentiation of the inhibition of anaphylactic histamine release by isoprenaline; format: cell-based, Dunkin-Hartley guinea-pigs; conditions: with isoprenaline 10^-7 mole per liter
PMN granulocytes = assay: inhibition of the stimulation of PMN granulocytes (chemiluminescence); format: cell-based, Rat; conditions: Rattus norvegicus; 10^-6 mole/l; FMLP 3.2×10^-7 mole/liter; read-out: Residual chemiluminescence
Excerpt: Polymorphonuclear neutrophil granulocytes (PMN) are cells which are mobilized during inflammatory phenomena and which can be stimulated by various compounds, such as, for example, formylmethionyl-leucylphenylalanine (FMLP) or prostaglandins E (PGE1). The PMN granulocytes respond to these extracellular stimuli with an activation of the oxygen metabolism with release of toxic oxygenated metabolites. An excessive response of the PMN granulocytes may be the cause of a painful inflammation and is also accompanied by a reduction in the level of cyclic adenosine monophosphate (cAMP) in these granulocytes. Consequently, compounds which inhibit the respiratory burst of PMN granulocytes or which increase the level of cAMP can be regarded as very important in the treatment of arthritis and asthma. […] Rat PMN granulocytes (5×10^6 /ml) are preincubated in a phosphate buffer ([…], pH 7.4), containing luminol at a concentration of 10^-5 mole per liter, for 15 minutes at 37° C. and then for 5 minutes in the presence of the compound to be treated at a concentration of 10^-6 mole/liter. […] The luminescence which results from the stimulation is measured by means of an LKB 1251 luminometer according to the method of […] and […] (Infection and Immunology, 37, (1982), 34-39). An experimental cycle lasts 38 seconds. The reaction is repeated 9 times for each compound to be tested and the average of the results obtained is calculated.

toxicity, Irwin's test = format: in vivo; conditions: i.p.; death of two animals out of three within 48 hours
Description: Progressive doses of the compound to be tested are administered intraperitoneally to groups of three mice until the lethal dose is reached (dose which causes the death of two animals out of three within 48 hours).

[6] = test system: amnesia induced by scopolamine; assay: multiple-trial passive avoidance: mnemic retention, amnesia induced by scopolamine
Description: To this end, the method of multiple-trial passive avoidance has been used. […] The test is carried out on male Sprague-Dawley rats (160-200 g). which are kept in standard cages throughout the experiment. The apparatus used is a transparent square cage with 35 cm sides and 25 cm high, fitted with a grid floor which can be electrified. A rubber insulating mat (10×17 cm) is placed on the floor in one of the corners of the cage.
Each animal is subjected to four tests at times 0, 4, 24 and 28 hours. In the first test (time 0), the animal is placed on the rubber mat and the time which it takes to decide to leave this position to explore the cage is recorded. After 20 seconds of exploration, the rat receives an electric shock (3 seconds duration) in the paws, causing an escape reaction. The rat is immediately removed from the apparatus and replaced in its original cage. In the course of the three subsequent tests (times: 4, 24 and 28 hours), the animal is replaced on the rubber mat and the time taken to leave this position is recorded. As soon as the four paws of the animal rest on the grid, it receives an electric shock and is removed immediately from the apparatus.
At the start of the experiment, the rats are divided into 4 homogeneous groups of 15 animals. Thirty minutes before each test, each group of animals is subjected to a predetermined treatment:
Groups 1 and 2 are used in the first experiment (learning) and groups 3 and 4 in the second experiment (mnemic retention).
The differences found are analyzed statistically by the Mann-Whitney method.

[7] = 3 hours after induction of the Arthus reaction, read-out: Dose (ID30), 3 hours
[8] = 5 hours after induction of the Arthus reaction, read-out: Dose (ID30), 5 hours
[9] = 4 hours, 1.0 mg/kg i.p. + 0.5 mg scopolamine
[10] = 24 hours, 1.0 mg/kg i.p. + 0.5 mg scopolamine
[11] = 28 hours, 1.0 mg/kg i.p. + 0.5 mg scopolamine
[12] = time 0, 1.0 mg/kg i.p. + 0.5 mg scopolamine
[13] = 4 hours, 2.8 mg/kg i.p. + 0.5 mg scopolamine
[14] = 24 hours, 2.8 mg/kg i.p. + 0.5 mg scopolamine
[15] = 28 hours, 2.8 mg/kg i.p. + 0.5 mg scopolamine
[16] = time 0, 2.8 mg/kg i.p. + 0.5 mg scopolamine

SMILES	ED50 [1] [µmol/kg]	ED50 [2] [µmol/kg]	ED50 [3] [µmol/kg]	ED30 [4, 7] [µmol/kg]	ED30 [4, 8] [µmol/kg]	Minimum potentiating dose (MPD) [5] [µmol/L]	activity at 1 µM (PMN granulocytes) [%]	Lethal dose (toxicity, Irwin's test) [mg/kg]	also measured
CCc1nc(NC2CC2)nc(N2CCOCC2)n1 [Compound 2]	0.5	0.3	0.5	2.3	0.7	3.2	68	285	Period of remaining on the mat, group 4 [6, 9]: 18.9 s; Period of remaining on the mat, group 4 [6, 10]: 24.3 s; Period of remaining on the mat, group 4 [6, 11]: 36.5 s; Period of remaining on the mat, group 4 [6, 12]: 7.9 s
CCCc1nc(NC2CC2)nc(N2CC3CCC(C2)O3)n1 [Compound 11]	0.1	0.1	0.09	0.5	0.4	0.32	44	325.8	Period of remaining on the mat, group 4 ([6]; 4 hours, 3.3 mg/kg i.p. + 0.5 mg scopolamine): 21.4 s; Period of remaining on the mat, group 4 ([6]; 24 hours, 3.3 mg/kg i.p. + 0.5 mg scopolamine): 58.6 s; Period of remaining on the mat, group 4 ([6]; 28 hours, 3.3 mg/kg i.p. + 0.5 mg scopolamine): 93.2 s; Period of remaining on the mat, group 4 ([6]; time 0, 3.3 mg/kg i.p. + 0.5 mg scopolamine): 10.7 s
CC(C)c1nc(NC2CC2)nc(N2CC3CCC(C2)O3)n1 [Compound 12]	0.06	0.04	0.2	2.5	3	0.1	36	325.8	Period of remaining on the mat, group 4 [6, 9]: 18.0 s; Period of remaining on the mat, group 4 [6, 10]: 51.1 s; Period of remaining on the mat, group 4 [6, 11]: 94.5 s; Period of remaining on the mat, group 4 [6, 12]: 3.6 s
CCCc1nc(NC2CC2)nc(N(CCO)CCO)n1 [Compound 6]	0.1	0.1	0.3	12	9	1.0	55	635.6	Period of remaining on the mat, group 4 ([6]; 4 hours, […] i.p. + 0.5 mg scopolamine): 11.7 s; Period of remaining on the mat, group 4 ([6]; 24 hours, […] i.p. + 0.5 mg scopolamine): 24.8 s; Period of remaining on the mat, group 4 ([6]; 28 hours, […] i.p. + 0.5 mg scopolamine): 28.7 s; Period of remaining on the mat, group 4 ([6]; time 0, […] i.p. + 0.5 mg scopolamine): 5.3 s
C1CC(c2nc(NC3CC3)nc(N3CCOCC3)n2)C1 [Compound 4, 2-cyclobutyl-4-cyclopropylamino-6-morpholino-1,3,5-triazine]	0.03	0.004	0.03	9	10	0.1	45	165	Period of remaining on the mat, group 4 [6, 13]: 44.5 s; Period of remaining on the mat, group 4 [6, 14]: 91.5 s; Period of remaining on the mat, group 4 [6, 15]: 106.6 s; Period of remaining on the mat, group 4 [6, 16]: 12.3 s
COC1CN(c2nc(NC3CC3)nc(C3CC3)n2)C1 [Compound 14]	0.2	0.09	0.5	16	12	0.32	51	156.8	Period of remaining on the mat, group 4 ([6]; 4 hours, 2.6 mg/kg i.p. + 0.5 mg scopolamine): 36.3 s; Period of remaining on the mat, group 4 ([6]; 24 hours, 2.6 mg/kg i.p. + 0.5 mg scopolamine): 73.9 s; Period of remaining on the mat, group 4 ([6]; 28 hours, 2.6 mg/kg i.p. + 0.5 mg scopolamine): 139.1 s; Period of remaining on the mat, group 4 ([6]; time 0, 2.6 mg/kg i.p. + 0.5 mg scopolamine): 11.7 s
C1CN(c2nc(NC3CC3)nc(C3CC3)n2)CCO1.Cl [Compound 3, 2-cyclopropyl-4-cyclopropylamino-6-morpholino-1,3,5-triazine hydrochloride]	0.1	0.03	0.07	0.8	0.4	0.32	39	297.8	Period of remaining on the mat, group 4 [6, 9]: 35.5 s; Period of remaining on the mat, group 4 [6, 10]: 105.0 s; Period of remaining on the mat, group 4 [6, 11]: 121.0 s; Period of remaining on the mat, group 4 [6, 12]: 6.5 s
OCCN(CCO)c1nc(NC2CC2)nc(C2CC2)n1 [Compound 7]	0.4	0.2	0.7	7.7	11	1.0	54	279.3	Period of remaining on the mat, group 4 [6, 13]: 34.5 s; Period of remaining on the mat, group 4 [6, 14]: 94.0 s; Period of remaining on the mat, group 4 [6, 15]: 133.0 s; Period of remaining on the mat, group 4 [6, 16]: 9.8 s
CCCc1nc(NC2CC2)nc(N2CCOCC2)n1 [Compound 1, 2-Cyclopropylamino-4-morpholino-6-n-propyl-1,3,5-triazine]	0.01	0.01	0.1	2	2	0.32	47	898	Period of remaining on the mat, group 4 ([6]; 4 hours, 3.0 mg/kg i.p. + 0.5 mg scopolamine): 42.8 s; Period of remaining on the mat, group 4 ([6]; 24 hours, 3.0 mg/kg i.p. + 0.5 mg scopolamine): 77.2 s; Period of remaining on the mat, group 4 ([6]; 28 hours, 3.0 mg/kg i.p. + 0.5 mg scopolamine): 114.6 s; Period of remaining on the mat, group 4 ([6]; time 0, 3.0 mg/kg i.p. + 0.5 mg scopolamine): 19.2 s
C1CC1Nc1nc(C2CC2)nc(N2CC3CCC(C2)O3)n1 [Compound 16]	0.009	0.009	0.05	1.5	2	0.032	42	194	Period of remaining on the mat, group 4 ([6]; 4 hours, 3.25 mg/kg i.p. + 0.5 mg scopolamine): 35.1 s; Period of remaining on the mat, group 4 ([6]; 24 hours, 3.25 mg/kg i.p. + 0.5 mg scopolamine): 118.5 s; Period of remaining on the mat, group 4 ([6]; 28 hours, 3.25 mg/kg i.p. + 0.5 mg scopolamine): 101.1 s; Period of remaining on the mat, group 4 ([6]; time 0, 3.25 mg/kg i.p. + 0.5 mg scopolamine): 11.3 s
OC1CN(c2nc(NC3CC3)nc(C3CC3)n2)C1 [Compound 13]	0.6	0.1	1.3	9	4	1.0	79	247.3	Period of remaining on the mat, group 4 ([6]; 4 hours, 2.5 mg/kg i.p. + 0.5 mg scopolamine): 55.3 s; Period of remaining on the mat, group 4 ([6]; 24 hours, 2.5 mg/kg i.p. + 0.5 mg scopolamine): 92.5 s; Period of remaining on the mat, group 4 ([6]; 28 hours, 2.5 mg/kg i.p. + 0.5 mg scopolamine): 99.0 s; Period of remaining on the mat, group 4 ([6]; time 0, 2.5 mg/kg i.p. + 0.5 mg scopolamine): 7.7 s
CCCc1nc(NC2CC2)nc(N2CCC(O)CC2)n1 [Compound 5]	0.1	0.06	0.1	3.1	27	3.2	74	277.4	Period of remaining on the mat, group 4 [6, 13]: 34.2 s; Period of remaining on the mat, group 4 [6, 14]: 35.9 s; Period of remaining on the mat, group 4 [6, 15]: 73.3 s; Period of remaining on the mat, group 4 [6, 16]: 14.5 s

From patent US5348956A, “Substituted cyclopropylamino-1,3,5-triazines” (UCB S.A., priority 1991, dated 1994)
